For 56 molecules, IC50 results are on record in patent US11266643B2, “Triaryl compounds for treatment of PD-L1 diseases” (CHEMOCENTRYX, INC., priority 2019, dated 2022).

Some results are limits rather than exact numbers.

Chain of human PD-L1 (Q9NZQ7 19-239): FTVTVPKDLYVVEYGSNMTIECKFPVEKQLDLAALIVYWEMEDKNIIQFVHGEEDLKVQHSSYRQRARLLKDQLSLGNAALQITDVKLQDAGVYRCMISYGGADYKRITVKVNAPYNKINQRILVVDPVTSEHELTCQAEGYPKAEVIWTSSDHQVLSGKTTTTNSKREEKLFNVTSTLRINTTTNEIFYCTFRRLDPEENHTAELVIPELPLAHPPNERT

The first experiment deals with human PD-L1 (Homo sapiens (Human), UniProt Q9NZQ7). Briefly: Enzyme-Linked Immunosorbent Assay (ELISA), PD-1/PD-L1 binding. To be noted: PD-1/PD-L1 ELISA, human PD-L1 coated plates, Table 1. In outline:
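Plates coated with […] human PD-L1 overnight at 4° C, blocked, then 1:5 serial compound dilutions added with human PD-1 […] 0.31 μg/mL for 1 h at 37° C. Bound PD-1 detected with streptavidin-HRP and TMB (20 min, 37° C); absorbance read at 450 nm after H2SO4 stop.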
What is called IC50 is the concentration that gives 50% inhibition. In turn, `COc1cc(-c2cccc(-c3cccc(Nc4ccnc5nccnc45)c3C)c2C)cc(F)c1CN1CC(C(=O)O)C1` [Example 1.245] gave an IC50 of less than 10 nM.

`COc1cc(-c2cccc(-c3cccc(NC(=O)C4CCCCO4)c3C)c2C)cc(F)c1CN` (centres unmarked) [Example 1.363] gave an IC50 of 10 to 1000 nM.

`COc1cc(-c2cccc(-c3cccc(NC(=O)c4cccn(C)c4=O)c3C)c2C)cc(F)c1CN1CC(C(=O)O)C1` [Example 1.301]: the IC50 is less than 10 nM.

In the case of `COc1cc(-c2cccc(-c3cccc(Nc4nccc5ccccc45)c3C)c2C)cc(F)c1CN1CC(C(=O)O)C1` [Example 1.262], the IC50 fell in the range of 1000 to 10000 nM.

Turning to `COc1cc(-c2cccc(-c3cccc(NC(=O)c4c[nH]c(=O)n(C)c4=O)c3C)c2C)cc(F)c1CN1CCC(N)C1` (centres unmarked) [Example 1.228], the IC50 lay in the range of 10 to 1000 nM.

Molecule `COc1cc(-c2cccc(-c3cccc(NC(=O)c4ccccn4)c3C)c2C)cc(F)c1CN1CCC[C@@H](C(=O)O)C1` [Example 1.354] came in with an IC50 of 10 to 1000 nM.

Molecule `COc1cc(-c2cccc(-c3cccc(NC(=O)c4ccncn4)c3C)c2C)cc(F)c1CN1CC(C)(C(=O)O)C1` [Example 1.340] showed an IC50 of less than 10 nM.

Take `COc1cc(-c2cccc(-c3cccc(NC(=O)c4ccc(CO)cn4)c3C)c2C)cc(F)c1CN1CC(C(=O)O)C1` [Example 1.342]: the IC50 was less than 10 nM.

In turn, `COc1cc(-c2cccc(-c3cccc(NC(=O)c4ccccn4)c3C)c2C)cc(F)c1CN1CCC2(C1)NC(=O)NC2=O` (centres unmarked) [Example 1.362] returned an IC50 of 10 to 1000 nM.

Molecule `COc1cc(-c2cccc(-c3cccc(NC(=O)c4c[nH]c(=O)n(C)c4=O)c3C)c2C)cc(F)c1CNCC1(O)CC1` [Example 1.214] registered an IC50 of less than 10 nM.

`COc1cc(-c2cccc(-c3cccc(NC(=O)c4ncco4)c3C)c2C)cc(F)c1CN1CC(C(=O)O)C1` [Example 1.349] yielded an IC50 of 10 to 1000 nM.

Take `COc1cc(-c2cccc(-c3cccc(NC(=O)c4c[nH]c(=O)n(C)c4=O)c3C)c2C)cc(F)c1CNC1CCOC1` (centres unmarked) [Example 1.224]: the IC50 was less than 10 nM.

In turn, `COc1cc(-c2cccc(-c3cccc(NC(=O)c4ccc(CC(=O)O)cn4)c3C)c2C)cc(F)c1CN` [Example 1.335] had an IC50 of 10 to 1000 nM.

As for `COc1cc(-c2cccc(-c3cccc(Nc4nccc5nccnc45)c3C)c2C)cc(F)c1CN[C@@H]1CNC(=O)C1` [Example 1.206], the IC50 is less than 10 nM.

In the case of `COc1ccc(C(=O)Nc2cccc(-c3cccc(-c4cc(F)c(CN5CC(C(=O)O)C5)c(OC)c4)c3C)c2C)nc1` [Example 1.351], the IC50 is less than 10 nM.

For `COc1cc(-c2cccc(-c3cccc(NC(=O)c4ccc(C(=O)NCC(=O)O)cn4)c3C)c2C)cc(F)c1CN` [Example 1.305], the IC50 is less than 10 nM.

The molecule `COc1cc(-c2cccc(-c3cccc(Nc4cccc5ccn(C)c(=O)c45)c3C)c2C)cc(F)c1CN1CC(C(=O)O)C1` [Example 1.284] had an IC50 of 10 to 1000 nM.

The molecule `COc1cc(-c2cccc(-c3cccc(NC(=O)c4cccn(C)c4=O)c3C)c2C)cc(F)c1CNCCO` [Example 1.300] came in with an IC50 of less than 10 nM.

The molecule `COC(=O)c1ccc(C(=O)Nc2cccc(-c3cccc(-c4cc(F)c(CN)c(OC)c4)c3C)c2C)nc1` [Example 1.353] showed an IC50 of 10 to 1000 nM.

The molecule `COc1cc(-c2cccc(-c3cccc(NC(=O)c4c[nH]c(=O)n(C)c4=O)c3C)c2C)cc(F)c1CNCCN` [Example 1.234] displayed an IC50 of less than 10 nM.

On to `COc1cc(-c2cccc(-c3cccc(NC(=O)c4ccccn4)c3C)c2C)cc(F)c1C(C)N` (centres unmarked) [Example 1.344], for which the IC50 was in the range of 10 to 1000 nM.

In turn, `COc1cc(-c2cccc(-c3cccc(NC(=O)c4cnc(C)[nH]c4=O)c3C)c2C)cc(F)c1CN1CC(C(=O)O)C1` [Example 1.272] came in with an IC50 of 10 to 1000 nM.

The molecule `COc1cc(-c2cccc(-c3cccc(NC(=O)c4ccc(Cl)cn4)c3C)c2C)cc(F)c1CN1CC(C(=O)O)C1` [Example 1.369] had an IC50 of 10 to 1000 nM.

Still in this experiment, the particulars now being: human PD-1/PD-L1 ELISA, plates coated with human PD-L1.
In turn, `COc1cc(-c2cccc(-c3cccc(NC(=O)c4cn(C)c(=O)n(C)c4=O)c3Cl)c2C)cc(F)c1CN[C@H]1CCC(=O)NC1` [Example 1.026] gave an IC50 of less than 10 nM.

In the case of `COc1cc(-c2cccc(-c3cccc(Nc4nccc5c4C(=O)N(C)CC5)c3C)c2C)cc(F)c1CNC[C@@H](C)O` [Example 1.185], the IC50 is 10 to 1000 nM.

Molecule `COc1cc(-c2cccc(-c3cccc(NC(=O)c4cncn(C)c4=O)c3C)c2C)cc(F)c1CN[C@@H]1CCC[C@H]1O` [Example 1.160] came in with an IC50 of less than 10 nM.

In turn, `COc1cc(-c2cccc(-c3cccc(NC(=O)c4nc5c(s4)CNCC5)c3F)c2C)cc(F)c1CNCCCC(=O)O` [Example 1.403] returned an IC50 of less than 10 nM.

`COc1cc(-c2cccc(-c3cccc(NC(=O)c4nn(C)c(=O)n(C)c4=O)c3C)c2C)cc(F)c1CNC[C@@H]1CCC(=O)N1` [Example 1.104] had a concentration for half-maximal inhibition (IC50) of less than 10 nM.

In turn, `COc1cc(-c2cccc(-c3cccc(NC(=O)c4cn(C)c(=O)n(C)c4=O)c3C)c2C)cc(F)c1CN[C@@H]1CCOC1` [Example 1.038] had an IC50 of less than 10 nM.

`COc1cc(-c2cccc(-c3cccc(NC(=O)c4cccn(C)c4=O)c3C)c2C)cc(F)c1CNC(C)C` [Example 1.170]: the IC50 was less than 10 nM.

Consider `COc1cc(-c2cccc(-c3cccc(NC(=O)c4cn(C)c(=O)n(C)c4=O)c3C)c2C)cc(F)c1CN(C)[C@@H]1CNC(=O)C1` [Example 1.148], for which the IC50 was less than 10 nM.

For `COc1cc(-c2cccc(-c3cccc(NC(=O)c4cn(C)c(=O)n(C)c4=O)c3C)c2Cl)cc(F)c1CNC[C@@H]1CCC(=O)N1` [Example 1.036], the IC50 is less than 10 nM.

For the molecule `COc1cc(-c2cccc(-c3cccc(NC(=O)c4cn(C)c(=O)n(C)c4=O)c3Cl)c2C)cc(F)c1CN[C@@H]1CCC(=O)NC1` [Example 1.009], the IC50 was less than 10 nM.

As for `COc1cc(-c2cccc(-c3cccc(NC(=O)c4cccn(C)c4=O)c3C)c2C)cc(F)c1CNC1CCOC1` (centres unmarked) [Example 1.168], the IC50 was less than 10 nM.

`COc1cc(-c2cccc(-c3cccc(NC(=O)c4ccc(CNCCO)cn4)c3C)c2C)cc(F)c1CNCCO` [Example 1.404] registered an IC50 of less than 10 nM.

As for `COc1cc(-c2cccc(-c3cccc(NC(=O)c4cncn(C)c4=O)c3C)c2C)cc(F)c1CN(C)[C@@H]1CNC(=O)C1` [Example 1.084], the IC50 lay within 10 to 1000 nM.

In turn, `COc1cc(-c2cccc(-c3cccc(Nc4nccc5nccnc45)c3C)c2C)cc(F)c1CN[C@H]1CCC[C@@H]1O` [Example 1.144] had an IC50 of less than 10 nM.

As to `COc1cc(-c2cccc(-c3cccc(NC(=O)c4cn(C)c(=O)n(C)c4=O)c3C)c2F)cc(F)c1CN[C@@H]1CNC(=O)C1` [Example 1.020], the IC50 was less than 10 nM.

Regarding `CNCc1c(F)cc(-c2cccc(-c3cccc(NC(=O)c4nc5c(s4)CN(CCO)CC5)c3F)c2C)cc1OC` [Example 1.398], the IC50 is less than 10 nM.

Take `COc1cc(-c2cccc(-c3cccc(NC(=O)c4nn(C)c(=O)n(C)c4=O)c3C)c2C)cc(F)c1CN(C)C[C@@H]1CCC(=O)N1` [Example 1.077]: the IC50 is less than 10 nM.

The molecule `COc1cc(-c2cccc(-c3cccc(NC(=O)c4nn(C)c(=O)n(C)c4=O)c3C)c2C)cc(F)c1CN[C@@H]1CCC(=O)NC1` [Example 1.069] displayed an IC50 of less than 10 nM.

As for `COc1cc(-c2cccc(-c3cccc(NC(=O)c4nn(C)c(=O)n(C)c4=O)c3C)c2C)cc(F)c1CNCCC(N)=O` [Example 1.090], the IC50 is less than 10 nM.

In turn, `COc1cc(-c2cccc(-c3cccc(NC(=O)c4c[nH]c(=O)n(C)c4=O)c3C)c2C)cc(F)c1CNCc1ncc[nH]1` [Example 1.119] showed an IC50 of 10 to 1000 nM.

For the molecule `COc1cc(-c2cccc(-c3cccc(NC(=O)c4cn(C)c(=O)n(C)c4=O)c3C)c2C)cc(F)c1CN(C)C[C@H]1CCC(=O)N1` [Example 1.152], the IC50 was in the range of 10 to 1000 nM.

`COc1cc(-c2cccc(-c3cccc(NC(=O)c4cn(C)c(=O)n(C)c4=O)c3C)c2F)cc(F)c1CN[C@H]1CCC(=O)NC1` [Example 1.005]: the IC50 was less than 10 nM.

`COc1cc(-c2cccc(-c3cccc(NC(=O)c4cn(C)c(=O)n(C)c4=O)c3Cl)c2Cl)cc(F)c1CN[C@@H]1CCOC[C@H]1O` [Example 1.006] displayed an IC50 of less than 10 nM.

In the case of `COc1cc(-c2cccc(-c3cccc(NC(=O)c4cn(C)c(=O)n(C)c4=O)c3C)c2C)cc(F)c1CN(C)[C@H]1CNC(=O)C1` [Example 1.126], the IC50 is 10 to 1000 nM.

`COc1cc(-c2cccc(-c3cccc(Nc4nccc5c4C(=O)N(C)CC5)c3C)c2C)cc(F)c1CN[C@@H]1CNC(=O)C1` [Example 1.196] yielded an IC50 of 10 to 1000 nM.

`COc1cc(-c2cccc(-c3cccc(NC(=O)c4c[nH]c(=O)n(C)c4=O)c3C)c2C)cc(F)c1CNCc1noc(=O)[nH]1` [Example 1.120] displayed an IC50 of 10 to 1000 nM.

For `COc1cc(-c2cccc(-c3cccc(NC(=O)c4cn(C)c(=O)n(C)c4=O)c3C)c2C)cc(F)c1CNCCCC(N)=O` [Example 1.081], the IC50 is less than 10 nM.

Turning to `COc1cc(-c2cccc(-c3cccc(NC(=O)c4c[nH]c(=O)n(C)c4=O)c3C)c2C)cc(F)c1CN1CCNC(=O)C1` [Example 1.183], the IC50 fell in the range of 1000 to 10000 nM.

Staying with this experiment, now noted: plate-coated human PD-L1, biotinylated Human PD-1, absorbance at 450 nm.
Turning to `COc1cc(-c2cccc(-c3cccc(NC(=O)c4cn(C)c(=O)n(C)c4=O)c3C)c2Cl)cc(F)c1CN[C@@H]1CCOC1` [Example 2.098], the IC50 was less than 10 nM.

Molecule `COc1cc(-c2cccc(-c3cccc(NC(=O)c4cn(C)c(=O)n(C)c4=O)c3C)c2F)cc(F)c1CN[C@H]1CCOC[C@@H]1O` [Example 2.095] gave an IC50 of less than 10 nM.

`COc1cc(-c2cccc(-c3cccc(NC(=O)c4cn(C)c(=O)n(C)c4=O)c3Cl)c2Cl)cc(F)c1CN[C@H]1COCC[C@@H]1O` [Example 2.071] returned a half-inhibitory concentration (IC50) of less than 10 nM.

In the case of `COc1cc(-c2cccc(-c3cccc(NC(=O)c4cn(C)c(=O)n(C)c4=O)c3Cl)c2Cl)cc(F)c1CNCC(C)(C)C(N)=O` [Example 2.108], the IC50 is less than 10 nM.

As for `COc1cc(-c2cccc(-c3cccc(NC(=O)c4cn(C)c(=O)n(C)c4=O)c3C)c2Cl)cc(F)c1CN[C@H]1CCOC[C@H]1OC` [Example 2.024], the IC50 is less than 10 nM.
